Data published in the NIST ThermoML archive (doi:10.1021/je060411g).

Experiment: molar heat capacity at constant pressure
Settings: 101.33 kPa

CC(C)C(C)O (stereo unspecified) [3-methyl-2-butanol]
Settings	molar heat capacity at constant pressure [J/K/mol]
84.8 K, Glass	64.32
85.35 K, Glass	64.92
86.61 K, Glass	65.12
87.96 K, Glass	65.91
88.5 K, Glass	66.12
88.57 K, Glass	66.46
89.76 K, Glass	68.19
90.5 K, Glass	68.52
91.72 K, Glass	69.65
92.44 K, Glass	69.5
93.66 K, Glass	70.82
94.37 K, Glass	70.42
95.6 K, Glass	72.69
96.3 K, Glass	72.33
97.54 K, Glass	73.76
98.24 K, Glass	73.35
99.48 K, Glass	75.44
100.17 K, Glass	75.01
101.42 K, Glass	76.81
102.11 K, Glass	76.45
103.37 K, Glass	78.23
104.06 K, Glass	77.94
105.32 K, Glass	79.77
106 K, Glass	79.31
107.95 K, Glass	80.89
109.9 K, Glass	82.57
110.42 K, Glass	83.46
110.85 K, Glass	82.24
111.85 K, Glass	84.29
112.07 K, Glass	84.44
113.8 K, Glass	85.97
114.04 K, Glass	86.22
115.76 K, Glass	87.69
116 K, Glass	87.96
117.71 K, Glass	89.53
119.67 K, Glass	91.4
121.44 K, Glass	93.27
121.62 K, Glass	93.55
122.07 K, Glass	94.36
123.27 K, Glass	95.77
123.58 K, Glass	95.92
125.24 K, Glass	98.99
125.53 K, Glass	98.88
127.2 K, Glass	102.7
127.49 K, Glass	103.22
129.14 K, Glass	107.45
134.82 K, Liquid	136.07
135.09 K, Liquid	140.35
136.74 K, Liquid	138.24
137.01 K, Liquid	138.6
138.7 K, Liquid	138.95
138.97 K, Liquid	138.85
140.69 K, Liquid	139.38
140.95 K, Liquid	139.07
142.67 K, Liquid	139.54
142.93 K, Liquid	139.3
144.66 K, Liquid	139.76
144.91 K, Liquid	139.63
146.65 K, Liquid	140.2
146.9 K, Liquid	139.94
148.63 K, Liquid	140.52
148.88 K, Liquid	140.31
150.86 K, Liquid	140.31
152.85 K, Liquid	140.9
154.84 K, Liquid	141.35
156.74 K, Liquid	142.41
156.82 K, Liquid	141.64
158.09 K, Liquid	142.73
158.81 K, Liquid	142.09
160.22 K, Liquid	143.13
160.79 K, Liquid	142.41
162.32 K, Liquid	143.63
162.78 K, Liquid	142.9
164.37 K, Liquid	144.12
164.76 K, Liquid	143.07
166.39 K, Liquid	145.96
166.75 K, Liquid	143.51
168.38 K, Liquid	145.62
168.73 K, Liquid	143.97
170.37 K, Liquid	146.06
170.72 K, Liquid	144.62
172.37 K, Liquid	145.89
172.7 K, Liquid	145.15
174.37 K, Liquid	146.25
174.69 K, Liquid	145.71
176.36 K, Liquid	147.39
176.67 K, Liquid	146.37
178.34 K, Liquid	147.47
178.66 K, Liquid	147.29
180.33 K, Liquid	147.95
180.64 K, Liquid	148.09
182.33 K, Liquid	148.74
182.63 K, Liquid	149.07
184.32 K, Liquid	149.21
184.61 K, Liquid	149.6
186.31 K, Liquid	149.62
186.6 K, Liquid	150.32
188.3 K, Liquid	149.99
188.59 K, Liquid	150.72
190.3 K, Liquid	150.82
190.58 K, Liquid	151.56
192.29 K, Liquid	151.37
192.57 K, Liquid	152.24
194.28 K, Liquid	152
194.56 K, Liquid	152.93
196.27 K, Liquid	152.73
196.55 K, Liquid	153.74
198.26 K, Liquid	153.78
198.54 K, Liquid	154.39
200.25 K, Liquid	154.7
200.53 K, Liquid	155.32
202.24 K, Liquid	155.43
202.51 K, Liquid	156.2
204.23 K, Liquid	156.17
204.5 K, Liquid	157.11
206.21 K, Liquid	156.91
206.48 K, Liquid	158.08
208.2 K, Liquid	157.81
208.47 K, Liquid	159.14
210.18 K, Liquid	158.87
210.46 K, Liquid	160.17
212.17 K, Liquid	159.83
214.15 K, Liquid	160.86
216.12 K, Liquid	161.85
218.08 K, Liquid	163.18
220.04 K, Liquid	164.39
221.99 K, Liquid	165.9
223.93 K, Liquid	167.49
225.86 K, Liquid	168.89
227.79 K, Liquid	170.77
229.71 K, Liquid	172.05
231.62 K, Liquid	173.69
233.53 K, Liquid	175.59
235.43 K, Liquid	177.3
237.32 K, Liquid	178.86
239.2 K, Liquid	180.5
241.08 K, Liquid	182.29
242.96 K, Liquid	184.02
244.82 K, Liquid	185.3
246.68 K, Liquid	187.07
248.53 K, Liquid	188.6
250.37 K, Liquid	190.8
252.21 K, Liquid	192.67
254.03 K, Liquid	194.25
255.85 K, Liquid	196.29
257.67 K, Liquid	198.36
259.47 K, Liquid	200.36
261.27 K, Liquid	202.49
263.06 K, Liquid	204.59
264.84 K, Liquid	206.44
266.62 K, Liquid	208.79
268.39 K, Liquid	210.85
270.15 K, Liquid	212.97
271.91 K, Liquid	215.09
273.66 K, Liquid	217.48
275.41 K, Liquid	219.86
277.14 K, Liquid	222.01
278.87 K, Liquid	224.26
280.6 K, Liquid	226.68
282.31 K, Liquid	228.97
284.02 K, Liquid	230.98
285.72 K, Liquid	233.15
287.42 K, Liquid	234.9
289.11 K, Liquid	237.64
290.79 K, Liquid	239.38
292.47 K, Liquid	241.39
294.15 K, Liquid	243.38
295.81 K, Liquid	245.77
297.47 K, Liquid	247.45
299.13 K, Liquid	249.65
300.78 K, Liquid	250.94
